Results as given in PubChem BioAssay (NCI).
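Following 48 hours of exposure in 96-well plates, responses at five concentrations were used to interpolate endpoints linearly. At the TGI there is no net growth.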

Tests used:
Assay in all cases: NCI anticancer screen, dose series, 48 h
SNB-19 CNS = tested on: SNB-19 CNS
NCI/ADR-RES ovarian = tested on: NCI/ADR-RES ovarian
BT-549 breast = tested on: BT-549 breast
OVCAR-5 ovarian = tested on: OVCAR-5 ovarian
HS 578T breast = tested on: HS 578T breast
CCRF-CEM leukemia = tested on: CCRF-CEM leukemia
NCI-H23 lung = tested on: NCI-H23 lung
SN12C renal = tested on: SN12C renal
HCT-116 colon = tested on: HCT-116 colon
786-0 renal = tested on: 786-0 renal
HOP-92 NSCLC = tested on: HOP-92 NSCLC
MCF7 breast = tested on: MCF7 breast
T-47D breast = tested on: T-47D breast
SF-295 CNS = tested on: SF-295 CNS
UO-31 renal = tested on: UO-31 renal
EKVX NSCLC = tested on: EKVX NSCLC
SF-268 CNS = tested on: SF-268 CNS
HT29 colon = tested on: HT29 colon
OVCAR-4 ovarian = tested on: OVCAR-4 ovarian
M14 melanoma = tested on: M14 melanoma
RXF 393 renal = tested on: RXF 393 renal
MALME-3M melanoma = tested on: MALME-3M melanoma
A498 renal = tested on: A498 renal
A549 NSCLC = tested on: A549 NSCLC
SNB-75 CNS = tested on: SNB-75 CNS
OVCAR-8 ovarian = tested on: OVCAR-8 ovarian
MOLT-4 leukemia = tested on: MOLT-4 leukemia
SK-OV-3 ovarian = tested on: SK-OV-3 ovarian
NCI-H522 lung = tested on: NCI-H522 lung
MDA-MB-231 breast = tested on: MDA-MB-231 breast
TK-10 renal = tested on: TK-10 renal
LOX IMVI melanoma = tested on: LOX IMVI melanoma
UACC-62 melanoma = tested on: UACC-62 melanoma
MDA-N = tested on: MDA-N
UACC-257 melanoma = tested on: UACC-257 melanoma
U251 CNS = tested on: U251 CNS
HOP-62 NSCLC = tested on: HOP-62 NSCLC
SK-MEL-2 melanoma = tested on: SK-MEL-2 melanoma
IGROV1 ovarian = tested on: IGROV1 ovarian
OVCAR-3 ovarian = tested on: OVCAR-3 ovarian
HCC-2998 colon = tested on: HCC-2998 colon
HCT-15 colon = tested on: HCT-15 colon
KM12 colon = tested on: KM12 colon
DU-145 prostate = tested on: DU-145 prostate
HL-60(TB) leukemia = tested on: HL-60(TB) leukemia
SK-MEL-28 melanoma = tested on: SK-MEL-28 melanoma
SK-MEL-5 melanoma = tested on: SK-MEL-5 melanoma
MDA-MB-435 = tested on: MDA-MB-435
PC-3 prostate = tested on: PC-3 prostate
K-562 leukemia = tested on: K-562 leukemia
CAKI-1 renal = tested on: CAKI-1 renal
SW-620 colon = tested on: SW-620 colon
RPMI-8226 leukemia = tested on: RPMI-8226 leukemia
NCI-H226 lung = tested on: NCI-H226 lung
COLO 205 colon = tested on: COLO 205 colon
ACHN renal = tested on: ACHN renal
NCI-H460 lung = tested on: NCI-H460 lung
SF-539 CNS = tested on: SF-539 CNS

`C[C@]12CCC3C4=C(CCC3C1CCC2=O)C(=O)[C@H]1O[C@H]1C4=O` (stereo partly drawn) was tested, and the TGI (SNB-19 CNS) was 30 µM, the TGI (NCI/ADR-RES ovarian) was 17.3 µM and the TGI (BT-549 breast) was 4.83 µM. For the same molecule, the TGI (OVCAR-5 ovarian) was 10.4 µM, the TGI (HS 578T breast) was greater than 30.5 µM and the TGI (CCRF-CEM leukemia) was 4.07 µM. For the same molecule, the TGI (NCI-H23 lung) was 8.4 µM, the TGI (SN12C renal) was 7.71 µM and the TGI (HCT-116 colon) was 2.16 µM. The TGI (786-0 renal) was 3.94 µM, the TGI (HOP-92 NSCLC) was 16.8 µM and the TGI (MCF7 breast) was 4.14 µM. It also gave a TGI (T-47D breast) of 2.78 µM, a TGI (SF-295 CNS) of 29.8 µM and a TGI (UO-31 renal) of 5.1 µM. The TGI (EKVX NSCLC) was 27.7 µM, the TGI (SF-268 CNS) was 5.32 µM and the TGI (HT29 colon) was 3.45 µM. The TGI (OVCAR-4 ovarian) was 7.96 µM, the TGI (M14 melanoma) was 10.2 µM and the TGI (RXF 393 renal) was 3.18 µM. It also gave a TGI (MALME-3M melanoma) of 37.5 µM, a TGI (A498 renal) of 31.1 µM and a TGI (A549 NSCLC) of 26.4 µM. It also gave a TGI (SNB-75 CNS) of 8.14 µM, a TGI (OVCAR-8 ovarian) of 5.59 µM and a TGI (MOLT-4 leukemia) of 4.32 µM. The TGI (SK-OV-3 ovarian) was 28 µM, the TGI (NCI-H522 lung) was 3.36 µM and the TGI (MDA-MB-231 breast) was 3.64 µM. The TGI (TK-10 renal) was 10.8 µM, the TGI (LOX IMVI melanoma) was 5.18 µM and the TGI (UACC-62 melanoma) was 9.34 µM. For the same molecule, the TGI (MDA-N) was 19.4 µM, the TGI (UACC-257 melanoma) was 34.1 µM and the TGI (U251 CNS) was 8.38 µM. For the same molecule, the TGI (HOP-62 NSCLC) was 12.8 µM, the TGI (SK-MEL-2 melanoma) was 26.5 µM and the TGI (IGROV1 ovarian) was 4.74 µM. For the same molecule, the TGI (OVCAR-3 ovarian) was 3.15 µM, the TGI (HCC-2998 colon) was 3.3 µM and the TGI (HCT-15 colon) was 2.8 µM. The TGI (KM12 colon) was 18.3 µM, the TGI (DU-145 prostate) was 8.41 µM and the TGI (HL-60(TB) leukemia) was 7.93 µM. It also gave a TGI (SK-MEL-28 melanoma) of 25.4 µM, a TGI (SK-MEL-5 melanoma) of 23.9 µM and a TGI (MDA-MB-435) of 24.9 µM. It also gave a TGI (PC-3 prostate) of 11.5 µM, a TGI (K-562 leukemia) of 6.87 µM and a TGI (CAKI-1 renal) of 4.88 µM. For the same molecule, the TGI (SW-620 colon) was 4.98 µM, the TGI (RPMI-8226 leukemia) was 4.25 µM and the TGI (NCI-H226 lung) was 4.99 µM. For the same molecule, the TGI (COLO 205 colon) was 9.23 µM, the TGI (ACHN renal) was 6.77 µM and the TGI (NCI-H460 lung) was 23.9 µM. For the same molecule, the TGI (SF-539 CNS) was 5.38 µM.
